# Results reported in patent publication US20110190365A1, “Insecticidal 4-phenyl-1H-pyrazoles” (Bayer Crop Science AG, priority 2008, published 2011).
# Assay: log P by HPLC on a reversed-phase column (C18), EEC Directive 79/831 Annex V.A8
# Type: physicochemical
# Conditions: HCOOH
# Description: The stated log P values were determined in accordance with EEC Directive 79/831 Annex V.A8 by HPLC (High Performance Liquid Chromatography) using a reversed-phase column (C18).
row,SMILES,log P (HCOOH)
1,Cc1cc(-n2nc(C(F)(F)F)c(-c3cc(Cl)cc(Cl)c3)c2N)ccc1C(=O)N(C)C [I-A-Q2-056],I-A-Q2-056: log P (HCOOH): 3.93
2,Nc1c(-c2ccc(Br)cc2)c(C(F)(F)F)nn1-c1ccc(C(=O)NCc2ccccn2)cc1 [I-A-Q2-191],I-A-Q2-191: log P (HCOOH): 2.57
3,Cc1cc(-n2nc(C(F)(F)F)c(-c3ccccc3Cl)c2N)ccc1C(=O)NCC(F)(F)C(F)F [I-A-Q2-308],I-A-Q2-308: log P (HCOOH): 3.23
4,Cc1cc(-n2nc(C(F)(F)F)c(-c3cc(Cl)cc(Cl)c3)c2N)ccc1C(=O)NC(C)(C)C [I-A-Q2-221],I-A-Q2-221: log P (HCOOH): 4.51
5,Cc1cc(-n2nc(C(F)(F)F)c(-c3ccc(C#N)cc3)c2N)ccc1C(=O)NCc1ccccn1 [I-A-Q2-349],I-A-Q2-349: log P (HCOOH): 2.04
6,CCc1nn(-c2ccc(C(=O)NCc3ccccn3)c(C)c2)c(N)c1-c1ccc(Cl)cc1 [I-A-Q2-379],I-A-Q2-379: log P (HCOOH): 2.20
7,Cc1nc(CNC(=O)c2ccc(-n3nc(C(F)(F)F)c(-c4cc(Cl)cc(Cl)c4)c3N)cc2C)cs1 [I-A-Q2-041],I-A-Q2-041: log P (HCOOH): 3.94
8,Cc1cc(-n2nc(C(F)(F)F)c(-c3cc(Cl)cc(Cl)c3)c2N)ccc1C(=O)NCc1cccc(N2CCOCC2)n1 [I-A-Q2-280],I-A-Q2-280: log P (HCOOH): 3.96
9,Cc1cc(-n2nc(C3CC3)c(-c3ccc(Cl)cc3)c2N)ccc1C(=O)NCC(F)(F)C(F)F [I-A-Q2-341],I-A-Q2-341: log P (HCOOH): 3.46
10,Cc1cc(-n2nc(C)c(-c3cccc(Cl)c3)c2N)ccc1C(=O)NCc1ccccn1 [I-A-Q2-371],I-A-Q2-371: log P (HCOOH): 1.88
11,Cc1cc(-n2nc(CC(C)C)c(-c3ccc(Cl)cc3)c2N)ccc1C(=O)NCc1ccccn1 [I-A-Q2-382],I-A-Q2-382: log P (HCOOH): 2.84
12,Cc1cc(-n2nc(C(F)(F)F)c(-c3cc(Cl)cc(Cl)c3)c2N)ccc1C(=O)NCC(F)(F)C(F)F [I-A-Q2-035],I-A-Q2-035: log P (HCOOH): 4.23
13,Nc1c(-c2cc(F)cc(Cl)c2)c(C(F)(F)F)nn1-c1ccc(C(=O)NCC(F)(F)F)cc1 [I-A-Q2-086],I-A-Q2-086: log P (HCOOH): 3.68
14,CCC(NC(=O)c1ccc(-n2nc(C(F)(F)F)c(-c3cc(Cl)cc(Cl)c3)c2N)cc1C)C(F)(F)F (stereo not drawn) [I-A-Q2-200],I-A-Q2-200: log P (HCOOH): 4.82
15,Cc1cc(-n2nc(C(F)(F)F)c(-c3cc(Cl)cc(Cl)c3)c2N)ccc1C(=O)NCC(C)C [I-A-Q2-227],I-A-Q2-227: log P (HCOOH): 4.40
16,Cc1cc(-n2nc(C(F)(F)C(F)(F)F)c(-c3ccc(Cl)cc3)c2N)ccc1C(=O)NCc1ccccn1 [I-A-Q2-363],I-A-Q2-363: log P (HCOOH): 3.19
17,CC(NC(=O)c1ccc(-n2nc(C(F)(F)F)c(-c3ccc(Cl)cc3)c2N)cc1)c1ccccn1 (stereo not drawn) [I-A-Q2-165],I-A-Q2-165: log P (HCOOH): 2.72
18,Nc1c(-c2ccc(Cl)c(Cl)c2)c(C(F)(F)F)nn1-c1ccc(C(=O)NCc2ccccn2)cc1 [I-A-Q2-158],I-A-Q2-158: log P (HCOOH): 2.85
19,Cc1cc(-n2nc(C(F)(F)F)c(I)c2N)ccc1C(=O)O [XI-A-087],XI-A-087: log P (HCOOH): 2.58

row,SMILES,log P (HCOOH)
1,Cc1cc(-n2nc(C(F)(F)F)c(-c3cc(Cl)cc(Cl)c3)c2N)ccc1C(=O)NC(c1ccc(C(F)(F)F)cc1)C(F)(F)F (stereo not drawn) [I-A-Q2-242],I-A-Q2-242: log P (HCOOH): 5.29
2,Cc1cc(-n2nc(C(F)(F)F)cc2N)ccc1C(=O)O [XI-A-084],XI-A-084: log P (HCOOH): 3.53
3,CC(NC(=O)c1ccc(-n2nc(C(F)(F)F)c(-c3cc(Cl)cc(Cl)c3)c2N)nc1)c1ccccc1 (stereo not drawn) [I-A-Q2-103],I-A-Q2-103: log P (HCOOH): 5.19
4,Nc1c(-c2ccc(Br)cc2)c(C(F)(F)F)nn1-c1ccc(C(=O)NC2CC2)cc1 [I-A-Q2-190],I-A-Q2-190: log P (HCOOH): 3.15
5,Nc1c(-c2ccc(Cl)c(F)c2)c(C(F)(F)F)nn1-c1ccc(C(=O)NCc2ccccn2)cc1 [I-A-Q2-171],I-A-Q2-171: log P (HCOOH): 2.53
6,Cc1cc(-n2nc(C(F)(F)F)c(-c3cc(Cl)cc(Cl)c3)c2N)ccc1C(=O)NCc1ncc(Cl)cc1C(F)(F)F [I-A-Q2-235],I-A-Q2-235: log P (HCOOH): 4.95
7,Cc1cc(-n2nc(C(F)F)c(-c3ccc(F)cc3F)c2N)ccc1C(=O)NCc1ccccn1 [I-A-Q2-361],I-A-Q2-361: log P (HCOOH): 1.91
8,CNC(=O)c1ccc(-n2nc(C(F)(F)F)c(-c3ccccc3Cl)c2N)cc1 [I-A-Q2-082],I-A-Q2-082: log P (HCOOH): 2.46
9,Cc1cc(-n2nc(C(F)(F)F)c(Br)c2N)ccc1C(=O)NCC(F)(F)C(F)F [XI-A-092],XI-A-092: log P (HCOOH): 3.03
10,Cc1cc(-n2nc(C(F)(F)F)c(-c3cc(Cl)cc(Cl)c3)c2N)ccc1C(=O)NC1CCN(C(=O)C2CC2)CC1 [I-A-Q2-203],I-A-Q2-203: log P (HCOOH): 3.77
11,CNC(=O)c1ccc(-n2nc(-c3ccccc3)c(-c3ccc(Cl)cc3)c2N)cc1 [I-A-Q2-078],I-A-Q2-078: log P (HCOOH): 2.94
12,N#Cc1cc(-n2nc(C(F)(F)F)cc2N)ccc1-n1cncn1 [XI-A-079],XI-A-079: log P (HCOOH): 2.80
13,Cc1cc(-n2nc(C(F)(F)F)c(-c3ccc(Cl)cc3Cl)c2N)ccc1C(=O)NCC1CC1 [I-A-Q2-410],I-A-Q2-410: log P (HCOOH): 3.94
14,Cc1cc(-n2nc(C(F)(F)F)c(-c3cc(Cl)cc(Cl)c3)c2N)ccc1C(=O)NC(c1ccc(Oc2ccccc2)cc1)C(F)(F)F (stereo not drawn) [I-A-Q2-045],I-A-Q2-045: log P (HCOOH): 5.85
15,COc1cc(OC)nc(CNC(=O)c2ccc(-n3nc(C(F)(F)F)c(-c4cc(Cl)cc(Cl)c4)c3N)cc2C)n1 [I-A-Q2-255],I-A-Q2-255: log P (HCOOH): 4.40
16,CC(NC(=O)c1ccc(-n2nc(C(F)(F)F)c(-c3cccc(Br)c3)c2N)cc1)C(F)(F)F (stereo not drawn) [I-A-Q2-172],I-A-Q2-172: log P (HCOOH): 3.73
17,Cc1nccc(CNC(=O)c2ccc(-n3nc(C(F)(F)F)c(-c4cc(Cl)cc(Cl)c4)c3N)cc2C)n1 [I-A-Q2-258],I-A-Q2-258: log P (HCOOH): 3.47
18,Cc1cc(-n2nc(CC(C)C)c(-c3ccc(Cl)cc3)c2N)ccc1C(=O)NCC(F)(F)C(F)F [I-A-Q2-342],I-A-Q2-342: log P (HCOOH): 3.85

# Same assay, conditions: HCOOH; Table 4, compounds of formula I-A-Q4
row,SMILES,log P (HCOOH)
1,CC(C)c1nn(-c2ccc(Cl)cn2)c(N)c1-c1ccc(Cl)cc1 [I-A-Q4-027],I-A-Q4-027: log P (HCOOH): 5.73
2,Nc1c(-c2ccc(Cl)cc2)c(C(F)(F)F)nn1-c1ccc(C(=O)O)cc1 [I-A-Q4-088],I-A-Q4-088: log P (HCOOH): 3.28
3,Nc1c(-c2ccccc2Cl)c(C(F)(F)F)nn1-c1ccc(Cl)cn1 [I-A-Q4-023],I-A-Q4-023: log P (HCOOH): 4.57
4,Nc1c(-c2cccc(F)c2)c(C(F)(F)F)nn1-c1ccc(Cl)cn1 [I-A-Q4-049],I-A-Q4-049: log P (HCOOH): 4.51
5,Cc1nn(-c2ccc(Cl)cn2)c(N)c1-c1cccc(Cl)c1 [I-A-Q4-034],I-A-Q4-034: log P (HCOOH): 4.40

# Same assay, conditions: HPLC, reversed-phase C18, mobile phase with formic acid
row,SMILES,log P (HCOOH)
1,N#Cc1cc(-n2nc(C(F)(F)F)c(-c3cccc(F)c3)c2N)ccc1-n1cncn1 [I-A-Q1-042],I-A-Q1-042: log P (HCOOH): 2.84
2,Nc1c(-c2cc(Cl)cc(Cl)c2)c(C(F)(F)F)nn1-c1ccc(-n2cncn2)c(-n2cncn2)c1 [I-A-Q1-075],I-A-Q1-075: log P (HCOOH): 3.28
3,N#Cc1cc(-n2nc(C(F)(F)F)c(-c3cc(Cl)cc(Cl)c3)c2N)ccc1-n1cc(F)cn1 [I-A-Q1-092],I-A-Q1-092: log P (HCOOH): 4.40
